From paper PMC9250534, “Synthesis and direct assay of large macrocycle diversities by combinatorial late-stage modification at picomole scale” (Nature Communications, 2022)

biological target: MDM2 (Homo sapiens, UniProt Q00987); test: MDM2 binding screen of Libraries 3 and 4: displacement of fluorescent probe F-M8 at 750 nM macrocycle; conditions: Panel b, Library 3: 63 scaffolds combinatorially acylated with 15 carboxylic acids at 30 picomole scale; displacement of fluorescent peptide probe; macrocycle 750 nM
Sequence (Q00987 whole entry): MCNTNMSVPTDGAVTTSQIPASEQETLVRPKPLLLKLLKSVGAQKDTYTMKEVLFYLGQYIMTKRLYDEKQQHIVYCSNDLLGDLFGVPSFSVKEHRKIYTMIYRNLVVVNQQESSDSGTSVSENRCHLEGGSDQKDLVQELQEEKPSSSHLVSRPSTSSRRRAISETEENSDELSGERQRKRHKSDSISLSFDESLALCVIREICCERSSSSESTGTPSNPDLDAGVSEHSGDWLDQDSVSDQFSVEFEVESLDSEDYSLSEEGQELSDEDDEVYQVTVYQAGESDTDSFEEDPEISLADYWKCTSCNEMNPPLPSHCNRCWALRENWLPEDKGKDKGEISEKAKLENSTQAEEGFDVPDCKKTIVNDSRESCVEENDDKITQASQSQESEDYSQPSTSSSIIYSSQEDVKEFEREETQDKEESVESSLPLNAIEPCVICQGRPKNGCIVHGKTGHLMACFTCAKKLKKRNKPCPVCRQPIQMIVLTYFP
Experimental: The cyclic peptide scaffolds required for Libraries 3 and 4 were synthesized as described for those used in Library 2. Due to the presence of many N-methylated amino acids which are more difficult to couple, 200 mM HOAt was applied together with HATU. The scaffolds were diluted to 2 mM in DMSO, and 15 nL were transferred using acoustic dispensing, followed by 15 nL DMSO containing carboxylic acids (40 mM, 20 equiv.), HBTU (40 mM) and DABCO (40 mM). After 6 h reaction at room temperature, 370 nL of DMSO was added to each well, followed by 5 μL of 100 mM Tris-Cl pH 7.4 containing 0.01% v/v Tween20, for quenching overnight.

Point of comparison: `O=C1CCSSCCNC(=O)[C@@H](Cc2c[nH]c3ccccc23)NC(=O)[C@H](CNC(=O)c2cccc(Oc3ccccc3)c2)NC(=O)C2(CC2)CN1` [X-Amcp-Dap-D-Trp + Acid 111], “fraction of fluorescent probe displaced” value 0.00133. Against it:
- CN1C(=O)[C@@H](CNC(=O)c2cccc(Oc3ccccc3)c2)NC(=O)C2(CC2)CNC(=O)CCSSCCNC(=O)[C@@H]1Cc1c[nH]c2ccccc12 [X-Amcp-D-Dap-NMe-Trp + Acid 111] — the same, 0.00133
- CN1C(=O)[C@@H](CNC(=O)CCS(=O)(=O)c2ccccc2)NC(=O)C2(CC2)CNC(=O)CCSSCCNC(=O)[C@@H]1Cc1c[nH]c2ccccc12 [X-Amcp-D-Dap-NMe-Trp + Acid 114] — higher, 0.055
- O=C1CCSSCCNC(=O)[C@H](Cc2c[nH]c3ccccc23)NC(=O)[C@@H](CNC(=O)c2ccc(Cl)s2)NC(=O)C2(CC2)CN1 [X-Amcp-D-Dap-Trp + Acid 14] — lower, -0.00533
- O=C1CCSSCCNC(=O)[C@H](Cc2c[nH]c3ccccc23)NC(=O)[C@@H](CNC(=O)c2ccc(Cl)cc2)NC(=O)C2(CC2)CN1 [X-Amcp-D-Dap-Trp + Acid 25] — lower, -0.00533
- O=C1CCSSCCNC(=O)[C@H](Cc2c[nH]c3ccccc23)NC(=O)[C@@H](CNC(=O)C2CC2c2ccccc2)NC(=O)C2(CC2)CN1 (stereo partly drawn) [X-Amcp-D-Dap-Trp + Acid 105] — lower, -0.015
- O=C1CCSSCCNC(=O)[C@H](Cc2c[nH]c3ccccc23)NC(=O)[C@@H](CNC(=O)c2ccc3ccccc3c2)NC(=O)C2(CC2)CN1 [X-Amcp-D-Dap-Trp + Acid 107] — higher, 0.024
- O=C(/C=C/c1ccc(OCc2ccccc2)cc1)NC[C@H]1NC(=O)C2(CC2)CNC(=O)CCSSCCNC(=O)[C@H](Cc2c[nH]c3ccccc23)NC1=O [X-Amcp-D-Dap-Trp + Acid 110] — higher, 0.015
- O=C1CCSSCCNC(=O)[C@H](Cc2c[nH]c3ccccc23)NC(=O)[C@@H](CNC(=O)c2cccc(Oc3ccccc3)c2)NC(=O)C2(CC2)CN1 [X-Amcp-D-Dap-Trp + Acid 111] — higher, 0.008
- O=C(/C=C/c1ccc2ccccc2c1)NC[C@H]1NC(=O)C2(CC2)CNC(=O)CCSSCCNC(=O)[C@H](Cc2c[nH]c3ccccc23)NC1=O [X-Amcp-D-Dap-Trp + Acid 112] — lower, -0.00533
- O=C1CCSSCCNC(=O)[C@H](Cc2cccc3ccccc23)NC(=O)[C@H](CNC(=O)c2ccc(Cl)s2)NC(=O)C2(CC2)CN1 [X-Amcp-Dap-1-NaI + Acid 14] — lower, -0.019
- O=C1CCSSCCNC(=O)[C@H](Cc2cccc3ccccc23)NC(=O)[C@H](CNC(=O)c2ccc(Cl)cc2)NC(=O)C2(CC2)CN1 [X-Amcp-Dap-1-NaI + Acid 25] — higher, 0.008
- O=C1CCSSCCNC(=O)[C@H](Cc2cccc3ccccc23)NC(=O)[C@H](CNC(=O)c2ccc3ccccc3c2)NC(=O)C2(CC2)CN1 [X-Amcp-Dap-1-NaI + Acid 107] — lower, -0.00844
- O=C(/C=C/c1ccc(OCc2ccccc2)cc1)NC[C@@H]1NC(=O)C2(CC2)CNC(=O)CCSSCCNC(=O)[C@H](Cc2cccc3ccccc23)NC1=O [X-Amcp-Dap-1-NaI + Acid 110] — the same, 0.00133
- O=C1CCSSCCNC(=O)[C@H](Cc2cccc3ccccc23)NC(=O)[C@H](CNC(=O)c2cccc(Oc3ccccc3)c2)NC(=O)C2(CC2)CN1 [X-Amcp-Dap-1-NaI + Acid 111] — higher, 0.008
- CC(Oc1cccc(Cl)c1)C(=O)NC[C@@H]1NC(=O)C2(CC2)CNC(=O)CCSSCCNC(=O)[C@H](Cc2cccc3ccccc23)NC1=O (stereo partly drawn) [X-Amcp-Dap-1-NaI + Acid 113] — lower, -0.012
- O=C(CCS(=O)(=O)c1ccccc1)NC[C@@H]1NC(=O)C2(CC2)CNC(=O)CCSSCCNC(=O)[C@H](Cc2cccc3ccccc23)NC1=O [X-Amcp-Dap-1-NaI + Acid 114] — lower, -0.00533
- O=C1CCSSCCNC(=O)[C@H](Cc2cccc3ccccc23)NC(=O)[C@H](CNC(=O)C2COc3ccccc3O2)NC(=O)C2(CC2)CN1 (stereo partly drawn) [X-Amcp-Dap-1-NaI + Acid 115] — the same, 0.00133
- O=C1CCSSCCNC(=O)[C@H](Cc2ccc3ccccc3c2)NC(=O)[C@H](CNC(=O)C2CC2c2ccccc2)NC(=O)C2(CC2)CN1 (stereo partly drawn) [X-Amcp-Dap-2-Nal + Acid 105] — lower, -0.034
- O=C(/C=C/c1ccncc1)NC[C@@H]1NC(=O)C2(CC2)CNC(=O)CCSSCCNC(=O)[C@H](Cc2ccc3ccccc3c2)NC1=O [X-Amcp-Dap-2-Nal + Acid 106] — lower, -0.002
- O=C1CCSSCCNC(=O)[C@H](Cc2ccc3ccccc3c2)NC(=O)[C@H](CNC(=O)c2ccc3ccccc3c2)NC(=O)C2(CC2)CN1 [X-Amcp-Dap-2-Nal + Acid 107] — higher, 0.031
- O=C(/C=C/c1ccc(Cl)cc1)NC[C@@H]1NC(=O)C2(CC2)CNC(=O)CCSSCCNC(=O)[C@H](Cc2ccc3ccccc3c2)NC1=O [X-Amcp-Dap-2-Nal + Acid 108] — higher, 0.008
- O=C(/C=C/c1ccc(OCc2ccccc2)cc1)NC[C@@H]1NC(=O)C2(CC2)CNC(=O)CCSSCCNC(=O)[C@H](Cc2ccc3ccccc3c2)NC1=O [X-Amcp-Dap-2-Nal + Acid 110] — higher, 0.041
- O=C1CCSSCCNC(=O)[C@H](Cc2ccc3ccccc3c2)NC(=O)[C@H](CNC(=O)c2cccc(Oc3ccccc3)c2)NC(=O)C2(CC2)CN1 [X-Amcp-Dap-2-Nal + Acid 111] — the same, 0.00133
- O=C(/C=C/c1ccc2ccccc2c1)NC[C@@H]1NC(=O)C2(CC2)CNC(=O)CCSSCCNC(=O)[C@H](Cc2ccc3ccccc3c2)NC1=O [X-Amcp-Dap-2-Nal + Acid 112] — higher, 0.015
- O=C1CCSSCCNC(=O)[C@H](Cc2c[nH]c3cc(Cl)ccc23)NC(=O)[C@H](CNC(=O)c2ccc3ccccc3c2)NC(=O)C2(CC2)CN1 [X-Amcp-Dap-Cl-Trp + Acid 107] — higher, 0.00455
- O=C(/C=C/c1ccc(Cl)cc1)NC[C@@H]1NC(=O)C2(CC2)CNC(=O)CCSSCCNC(=O)[C@H](Cc2c[nH]c3cc(Cl)ccc23)NC1=O [X-Amcp-Dap-Cl-Trp + Acid 108] — the same, 0.00133
- O=C1CCSSCCNC(=O)[C@H](Cc2c[nH]c3cc(Cl)ccc23)NC(=O)[C@H](CNC(=O)c2cccc(Oc3ccccc3)c2)NC(=O)C2(CC2)CN1 [X-Amcp-Dap-Cl-Trp + Acid 111] — higher, 0.008
- O=C(/C=C/c1ccc2ccccc2c1)NC[C@@H]1NC(=O)C2(CC2)CNC(=O)CCSSCCNC(=O)[C@H](Cc2c[nH]c3cc(Cl)ccc23)NC1=O [X-Amcp-Dap-Cl-Trp + Acid 112] — higher, 0.008
- O=C1CCSSCCNC(=O)[C@H](Cc2c[nH]c3cc(Cl)ccc23)NC(=O)[C@H](CNC(=O)C2COc3ccccc3O2)NC(=O)C2(CC2)CN1 (stereo partly drawn) [X-Amcp-Dap-Cl-Trp + Acid 115] — lower, -0.012
- O=C1CCSSCCNC(=O)[C@@H](Cc2c[nH]c3ccccc23)NC(=O)[C@H](CNC(=O)C2CC2c2ccccc2)NC(=O)C2(CC2)CN1 (stereo partly drawn) [X-Amcp-Dap-D-Trp + Acid 105] — lower, -0.015
- O=C1CCSSCCNC(=O)[C@@H](Cc2c[nH]c3ccccc23)NC(=O)[C@H](CNC(=O)c2ccc3ccccc3c2)NC(=O)C2(CC2)CN1 [X-Amcp-Dap-D-Trp + Acid 107] — higher, 0.050
- O=C(/C=C/c1ccc(OCc2ccccc2)cc1)NC[C@@H]1NC(=O)C2(CC2)CNC(=O)CCSSCCNC(=O)[C@@H](Cc2c[nH]c3ccccc23)NC1=O [X-Amcp-Dap-D-Trp + Acid 110] — higher, 0.008
- O=C(/C=C/c1ccc2ccccc2c1)NC[C@@H]1NC(=O)C2(CC2)CNC(=O)CCSSCCNC(=O)[C@@H](Cc2c[nH]c3ccccc23)NC1=O [X-Amcp-Dap-D-Trp + Acid 112] — higher, 0.015
- O=C(CCS(=O)(=O)c1ccccc1)NC[C@@H]1NC(=O)C2(CC2)CNC(=O)CCSSCCNC(=O)[C@@H](Cc2c[nH]c3ccccc23)NC1=O [X-Amcp-Dap-D-Trp + Acid 114] — higher, 0.035
- Cn1cc(C[C@@H]2NC(=O)[C@H](CNC(=O)c3ccc(Cl)s3)NC(=O)C3(CC3)CNC(=O)CCSSCCNC2=O)c2ccccc21 [X-Amcp-Dap-Me-Trp + Acid 14] — higher, 0.008
- Cn1cc(CC2NC(=O)C(CNC(=O)C3CC3c3ccccc3)NC(=O)C3(CC3)CNC(=O)CCSSCCNC2=O)c2ccccc21 (stereo not drawn) [X-Amcp-Dap-Me-Trp + Acid 105] — lower, -0.021
- Cn1cc(C[C@@H]2NC(=O)[C@H](CNC(=O)/C=C/c3ccc(Cl)cc3)NC(=O)C3(CC3)CNC(=O)CCSSCCNC2=O)c2ccccc21 [X-Amcp-Dap-Me-Trp + Acid 108] — higher, 0.008
- Cn1cc(C[C@@H]2NC(=O)[C@H](CNC(=O)/C=C/c3ccc(OCc4ccccc4)cc3)NC(=O)C3(CC3)CNC(=O)CCSSCCNC2=O)c2ccccc21 [X-Amcp-Dap-Me-Trp + Acid 110] — higher, 0.008
- Cn1cc(C[C@@H]2NC(=O)[C@H](CNC(=O)/C=C/c3ccc4ccccc4c3)NC(=O)C3(CC3)CNC(=O)CCSSCCNC2=O)c2ccccc21 [X-Amcp-Dap-Me-Trp + Acid 112] — higher, 0.028
- Cn1cc(C[C@@H]2NC(=O)[C@H](CNC(=O)CCS(=O)(=O)c3ccccc3)NC(=O)C3(CC3)CNC(=O)CCSSCCNC2=O)c2ccccc21 [X-Amcp-Dap-Me-Trp + Acid 114] — higher, 0.041
- Cn1cc(C[C@@H]2NC(=O)[C@H](CNC(=O)C3COc4ccccc4O3)NC(=O)C3(CC3)CNC(=O)CCSSCCNC2=O)c2ccccc21 (stereo partly drawn) [X-Amcp-Dap-Me-Trp + Acid 115] — higher, 0.015
